Measurements reported in ChEMBL document CHEMBL2074451, “ATP- and glutathione-dependent transport of chemotherapeutic drugs by the multidrug resistance protein MRP1” (Br J Pharmacol, 1999).

Assays:
[1] = target: ATP-dependent translocase ABCB1 (Homo sapiens, UniProt P08183); experiment: TP_TRANSPORTER: uptake in A2780 and A2780AD cells; type: functional, cell-based
[2] = target: Multidrug resistance-associated protein 1 (Homo sapiens, UniProt P33527); experiment: TP_TRANSPORTER: uptake in membrane vesicles from GLC4/ADR cells; type: functional, cell membranes, Membrane vesicle; conditions: glc-4/adr
Multidrug resistance-associated protein 1, sequence (P33527 whole entry): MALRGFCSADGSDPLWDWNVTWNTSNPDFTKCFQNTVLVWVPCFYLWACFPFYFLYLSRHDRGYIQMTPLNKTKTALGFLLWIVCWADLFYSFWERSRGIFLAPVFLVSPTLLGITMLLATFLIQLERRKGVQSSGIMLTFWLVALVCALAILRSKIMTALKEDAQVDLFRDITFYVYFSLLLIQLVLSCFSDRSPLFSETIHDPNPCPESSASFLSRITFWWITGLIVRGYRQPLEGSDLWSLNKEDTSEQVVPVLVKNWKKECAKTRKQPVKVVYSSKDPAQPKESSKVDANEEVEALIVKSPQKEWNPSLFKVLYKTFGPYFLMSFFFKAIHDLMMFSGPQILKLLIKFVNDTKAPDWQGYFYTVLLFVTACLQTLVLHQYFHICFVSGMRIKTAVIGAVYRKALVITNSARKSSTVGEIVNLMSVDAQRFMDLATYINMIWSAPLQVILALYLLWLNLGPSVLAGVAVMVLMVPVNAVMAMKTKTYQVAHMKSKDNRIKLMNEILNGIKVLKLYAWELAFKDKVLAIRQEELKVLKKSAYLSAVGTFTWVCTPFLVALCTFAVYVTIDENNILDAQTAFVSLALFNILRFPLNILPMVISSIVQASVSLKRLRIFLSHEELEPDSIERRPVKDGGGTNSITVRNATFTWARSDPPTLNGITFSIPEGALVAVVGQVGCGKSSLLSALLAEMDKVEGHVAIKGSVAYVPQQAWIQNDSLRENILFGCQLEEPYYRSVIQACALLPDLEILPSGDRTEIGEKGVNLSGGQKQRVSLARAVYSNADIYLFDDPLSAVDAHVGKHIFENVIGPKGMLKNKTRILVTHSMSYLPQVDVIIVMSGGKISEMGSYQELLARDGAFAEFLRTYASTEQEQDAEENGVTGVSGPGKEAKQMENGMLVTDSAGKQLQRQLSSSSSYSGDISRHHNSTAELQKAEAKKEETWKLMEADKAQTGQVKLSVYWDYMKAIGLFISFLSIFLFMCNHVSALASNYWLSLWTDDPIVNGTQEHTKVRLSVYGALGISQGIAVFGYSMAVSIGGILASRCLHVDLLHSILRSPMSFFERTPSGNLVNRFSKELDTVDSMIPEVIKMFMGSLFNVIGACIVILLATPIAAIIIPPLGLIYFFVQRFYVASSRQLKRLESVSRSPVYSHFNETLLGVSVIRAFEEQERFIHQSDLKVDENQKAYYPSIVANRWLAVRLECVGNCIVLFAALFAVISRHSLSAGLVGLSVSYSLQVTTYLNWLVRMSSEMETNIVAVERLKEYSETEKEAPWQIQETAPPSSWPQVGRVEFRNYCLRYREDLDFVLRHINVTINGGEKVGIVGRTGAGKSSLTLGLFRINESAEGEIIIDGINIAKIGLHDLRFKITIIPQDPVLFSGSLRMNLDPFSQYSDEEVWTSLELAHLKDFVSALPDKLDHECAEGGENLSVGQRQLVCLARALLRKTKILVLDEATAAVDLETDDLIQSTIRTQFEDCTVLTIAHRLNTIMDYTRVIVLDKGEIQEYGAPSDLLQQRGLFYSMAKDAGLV

ATP-dependent translocase ABCB1, sequence (P08183 whole entry): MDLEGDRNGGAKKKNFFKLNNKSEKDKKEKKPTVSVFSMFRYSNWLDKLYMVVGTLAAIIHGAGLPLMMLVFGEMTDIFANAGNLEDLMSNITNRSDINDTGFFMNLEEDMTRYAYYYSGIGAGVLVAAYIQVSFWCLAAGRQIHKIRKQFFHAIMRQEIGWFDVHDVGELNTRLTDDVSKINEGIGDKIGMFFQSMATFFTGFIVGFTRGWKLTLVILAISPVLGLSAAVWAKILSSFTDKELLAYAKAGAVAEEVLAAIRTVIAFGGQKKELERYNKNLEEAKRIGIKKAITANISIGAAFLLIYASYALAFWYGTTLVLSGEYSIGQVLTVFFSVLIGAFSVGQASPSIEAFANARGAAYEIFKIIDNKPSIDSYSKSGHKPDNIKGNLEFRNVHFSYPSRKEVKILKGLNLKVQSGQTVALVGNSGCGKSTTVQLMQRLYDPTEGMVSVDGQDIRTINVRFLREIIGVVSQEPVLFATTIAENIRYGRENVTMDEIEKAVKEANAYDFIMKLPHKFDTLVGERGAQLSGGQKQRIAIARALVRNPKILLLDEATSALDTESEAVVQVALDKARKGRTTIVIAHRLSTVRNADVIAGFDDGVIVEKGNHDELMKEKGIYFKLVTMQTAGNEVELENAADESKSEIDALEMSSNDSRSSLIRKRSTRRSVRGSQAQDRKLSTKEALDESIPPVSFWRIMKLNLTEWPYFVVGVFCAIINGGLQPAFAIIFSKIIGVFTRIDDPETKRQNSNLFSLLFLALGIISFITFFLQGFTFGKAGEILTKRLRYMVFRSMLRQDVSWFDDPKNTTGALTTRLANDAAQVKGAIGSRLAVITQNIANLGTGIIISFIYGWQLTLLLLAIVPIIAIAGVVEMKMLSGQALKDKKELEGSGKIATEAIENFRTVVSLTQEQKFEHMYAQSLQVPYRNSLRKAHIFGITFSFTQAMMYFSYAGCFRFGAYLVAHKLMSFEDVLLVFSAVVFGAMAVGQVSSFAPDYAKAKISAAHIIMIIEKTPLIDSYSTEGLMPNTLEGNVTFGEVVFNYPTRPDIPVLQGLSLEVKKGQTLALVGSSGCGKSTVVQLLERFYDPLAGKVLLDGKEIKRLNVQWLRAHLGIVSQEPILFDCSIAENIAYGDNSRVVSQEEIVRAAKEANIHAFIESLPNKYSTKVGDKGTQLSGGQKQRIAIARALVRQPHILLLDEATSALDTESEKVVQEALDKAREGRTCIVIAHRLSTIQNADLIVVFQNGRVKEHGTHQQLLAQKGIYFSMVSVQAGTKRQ

Activity [2] | Compound | Activity [1]
– | CCC1C[N+]2(CCCC3(C)N=N3)C3CC45c6ccccc6N(C)C4C2CC1C3C5O (configuration not stated) | substrate [+]
substrate [+] | CC[C@]1(O)C[C@H]2CN(CCc3c([nH]c4ccccc34)[C@@](C(=O)OC)(c3cc4c(cc3OC)N(C=O)[C@H]3[C@@](O)(C(=O)OC)[C@H](OC(C)=O)[C@]5(CC)C=CCN6CC[C@]43[C@@H]65)C2)C1 [VINCRISTINE] | –
